Measurements reported in patent publication US9850283B2, “Macrocyclic inhibitors of the PD-1/PD-L1 and CD80(B7-1)/PD-L1 protein/protein interactions” (BRISTOL-MYERS SQUIBB COMPANY, priority 2013, dated 2017).
Like-named read-outs stand apart in the source and are kept apart here. Starred links: 1 amine or outer side, 2 acyl side, 3 side chain; linkers in the order of their positions; H or OH if unused. Positions of bridges follow the written chain, without caps; N, C: chain ends. Non-standard residues stand in square brackets, D forms with d. Residues, ends and D or L forms follow the SMILES beside them. ξ: configuration not given here. Phe(3,4,5-F3) = N[C@@H](Cc1cc(F)c(F)c(F)c1)C(=O)O; Phe(3,5-F2) = N[C@@H](Cc1cc(F)cc(F)c1)C(=O)O; Phe(4-CH2NH2) = NCc1ccc(C[C@H](N)C(=O)O)cc1; Phe(3-Me) = Cc1cccc(C[C@H](N)C(=O)O)c1; d(cisHyp) = O=C(O)[C@H]1C[C@@H](O)CN1; Hyp = O=C(O)[C@@H]1C[C@@H](O)CN1; NMeF = CN[C@@H](Cc1ccccc1)C(=O)O; X4 = O=C([C@H]1COCCN1[*:1])[*:2]; NMehSer = CN[C@@H](CCO)C(=O)O; NMeNle = CCCC[C@H](NC)C(=O)O; NMeA = CN[C@@H](C)C(=O)O; Orn = NCCC[C@H](N)C(=O)O; Dab = NCC[C@H](N)C(=O)O; Dap = NC[C@H](N)C(=O)O; ξC = NC(CS)C(=O)O; Sar = CNCC(=O)O

What was measured:
Human PD-L1/PD-1 = target: T1, Human PD-L1/PD-1 (Homo sapiens, UniProt Q9NZQ7); assay: HTRF PD-1-Ig/PD-L1-His binding assay (human PD-L1); conditions: cluster symbol; read-out: HTRF IC50 cluster
T1 construct: made in house; host or cells: HEK293T
T1 sequence (Q9NZQ7 with tags, fused parts or gaps): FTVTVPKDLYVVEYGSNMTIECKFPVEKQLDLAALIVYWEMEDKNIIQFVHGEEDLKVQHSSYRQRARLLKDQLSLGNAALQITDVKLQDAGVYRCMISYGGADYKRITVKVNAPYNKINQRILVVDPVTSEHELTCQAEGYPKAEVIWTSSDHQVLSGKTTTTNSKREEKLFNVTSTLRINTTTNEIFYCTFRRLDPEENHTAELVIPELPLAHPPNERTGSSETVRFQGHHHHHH
Summary of the method: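 Ig- and His-fused extracellular PD-1/PD-L1 binding in BSA/Tween-20 dPBS. HTRF with Eu anti-Ig (1 nM final) and APC anti-His (20 nM final).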

[1] = target: T2, LK35.2-hPD-L1 cells / PE-labeled PD-1-Ig (Homo sapiens, UniProt Q9NZQ7); assay: LK35.2-hPD-L1 cell binding high-content screening assay; type: cell-based; conditions: cluster symbol, read-out: CBA IC50 cluster
T2 construct: expressed in transfected cells; host or cells: LK35.2 mouse B cell line
T2 sequence (Q9NZQ7 19-290): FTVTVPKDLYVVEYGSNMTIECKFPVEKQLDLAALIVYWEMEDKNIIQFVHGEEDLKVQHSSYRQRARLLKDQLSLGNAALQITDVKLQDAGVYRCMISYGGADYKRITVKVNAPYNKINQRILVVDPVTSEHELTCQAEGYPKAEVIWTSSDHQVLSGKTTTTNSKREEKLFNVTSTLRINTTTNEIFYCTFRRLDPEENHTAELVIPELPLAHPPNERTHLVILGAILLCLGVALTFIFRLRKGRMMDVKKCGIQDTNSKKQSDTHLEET
Summary of the method: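 Mouse LK35.2 B cells stably over-expressing human PD-L1, cultured overnight, treated with compound plus PE-labeled human PD-1-Ig (1 nM final) in RPMI/10% FCS for 1 h at 37 °C. After washing, bound fluorescence quantified by high-content imaging.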

[2] = cell line of CBA not given (LK35.2-hPD-L1 or 293T-hPD-L1)
[3] = cell binding assay, cell line not given

SMILES	IC50 (Human PD-L1/PD-1) [nM]	IC50 [1, 2] [nM]	IC50 [1, 3] [nM]
CCCC[C@H]1C(=O)N2CCC[C@@H]2C(=O)N2C[C@H](O)C[C@H]2C(=O)N[C@@H](C(C)C)C(=O)N(C)[C@@H](Cc2ccccc2)C(=O)N[C@@H](Cc2ccc(O)cc2)C(=O)N(C)CC(=O)N[C@@H](Cc2c[nH]c3ccccc23)C(=O)N[C@@H](Cc2ccc(O)cc2)C(=O)N[C@@H](CC(C)C)C(=O)N[C@H](C(=O)NCC(N)=O)CSCC(=O)N[C@@H](Cc2ccccc2)C(=O)N(C)[C@@H](Cc2ccccc2)C(=O)N1C [Example 3174] (HELM PEPTIDE1{[O=C(C[*:3])[*:2]].F.[meF].[CCCC[C@@H](C(=O)[*:2])N(C)[*:1]].[dP].[Hyp].V.[meF].Y.[Sar].W.Y.L.C.G.[am]}$PEPTIDE1,PEPTIDE1,1:R3-14:R3$$$V2.0)	> 30.5	4.78 to 72.9	
CCCC[C@H]1C(=O)N(C)CC(=O)N[C@@H](CCN)C(=O)N[C@@H](C(C)C)C(=O)N(C)[C@@H](Cc2ccccc2)C(=O)N[C@@H](Cc2ccc(O)cc2)C(=O)N(C)CC(=O)N[C@@H](Cc2c[nH]c3ccccc23)C(=O)N[C@@H](Cc2ccc(O)cc2)C(=O)N[C@@H](CC(C)C)C(=O)N[C@H](C(=O)NCC(N)=O)CSCC(=O)N[C@@H](Cc2ccccc2)C(=O)N(C)[C@@H](Cc2ccccc2)C(=O)N1C [Example 3153] (HELM PEPTIDE1{[O=C(C[*:3])[*:2]].F.[meF].[CCCC[C@@H](C(=O)[*:2])N(C)[*:1]].[Sar].[Dab].V.[meF].Y.[Sar].W.Y.L.C.G.[am]}$PEPTIDE1,PEPTIDE1,1:R3-14:R3$$$V2.0)	6.76 to 30.3	4.78 to 72.9	
CCCC[C@H]1C(=O)N[C@@H](CCCNC(=N)N)C(=O)NC(C(=O)NCC(N)=O)CSCC(=O)N[C@@H](Cc2ccc(O)cc2)C(=O)N(C)[C@@H](C)C(=O)N[C@@H](CC(=O)O)C(=O)N2CCC[C@H]2C(=O)N[C@@H](Cc2cnc[nH]2)C(=O)N[C@@H](CC(C)C)C(=O)N2CCC[C@H]2C(=O)N[C@@H](Cc2c[nH]c3ccccc23)C(=O)N[C@@H](CO)C(=O)N[C@@H](Cc2c[nH]c3ccccc23)C(=O)N(C)[C@@H](CCOC)C(=O)N1C (stereo partly shown) [Example 9010] ({CH2CO}-Y[NMeA]DPHLPWSW[NMehSer](Me)[NMeNle]R[ξC]G-NH2; thioether N-14)	6.76 to 30.3		4.78 to 72.9
CCCC[C@H]1C(=O)N(C)[C@@H](CCCC)C(=O)N[C@@H](CO)C(=O)N[C@H](C(=O)NCC(N)=O)CSCC(=O)N[C@@H](Cc2ccc(O)cc2)C(=O)N(C)[C@@H](C)C(=O)N[C@@H](CC(N)=O)C(=O)N2CCC[C@H]2C(=O)N[C@@H](Cc2c[nH]cn2)C(=O)N[C@@H](CCC(N)=O)C(=O)N2C[C@H](O)C[C@H]2C(=O)N[C@@H](Cc2c[nH]c3ccccc23)C(=O)N[C@@H](CO)C(=O)N[C@@H](Cc2c[nH]c3ccccc23)C(=O)N1C [Example 5121] ({CH2CO}-Y[NMeA]NPHQ[Hyp]WSW[NMeNle][NMeNle]SCG-NH2; thioether N-14)	6.76 to 30.3		4.78 to 72.9
CCCC[C@H]1C(=O)N(C)[C@@H](CCCC)C(=O)N[C@@H](CCCNC(=N)N)C(=O)N[C@H](C(=O)NCC(N)=O)CSCC(=O)N[C@@H](Cc2cc(F)cc(F)c2)C(=O)N(C)[C@@H](C)C(=O)N[C@@H](CC(N)=O)C(=O)N2CCC[C@H]2C(=O)N[C@@H](CN)C(=O)N[C@@H](CC(C)C)C(=O)N2C[C@H](O)C[C@H]2C(=O)N[C@@H](Cc2c[nH]c3ccccc23)C(=O)N[C@@H](CO)C(=O)N[C@@H](Cc2c[nH]c3ccccc23)C(=O)N1C [Example 7043] ({CH2CO}-[Phe(3,5-F2)][NMeA]NP[Dap]L[Hyp]WSW[NMeNle][NMeNle]RCG-NH2; thioether N-14)	6.76 to 30.3		4.78 to 72.9
CCCC[C@H]1C(=O)N(C)[C@@H](CCCC)C(=O)N[C@@H](CN)C(=O)N[C@H](C(=O)NCC(N)=O)CSCC(=O)N[C@@H](Cc2ccc(O)cc2)C(=O)N(C)[C@@H](C)C(=O)N[C@@H](CC(N)=O)C(=O)N2CCC[C@H]2C(=O)N[C@@H](Cc2c[nH]cn2)C(=O)N[C@@H](CCC(=O)O)C(=O)N2C[C@H](O)C[C@H]2C(=O)N[C@@H](Cc2c[nH]c3ccccc23)C(=O)N[C@@H](CCN)C(=O)N[C@@H](Cc2c[nH]c3ccccc23)C(=O)N1C [Example 5064] ({CH2CO}-Y[NMeA]NPHE[Hyp]W[Dab]W[NMeNle][NMeNle][Dap]CG-NH2; thioether N-14)	0.385 to 6.74		0.158 to 4.71
CCCC[C@H]1C(=O)N(C)[C@@H](CCCC)C(=O)N[C@@H](CCN)C(=O)N[C@H](C(=O)NCC(N)=O)CSCC(=O)N[C@@H](Cc2ccc(O)cc2)C(=O)N(C)[C@@H](C)C(=O)N[C@@H](CC(N)=O)C(=O)N2CCC[C@H]2C(=O)N[C@@H](Cc2cnc[nH]2)C(=O)N[C@@H](CCC(=O)O)C(=O)N2C[C@H](O)C[C@H]2C(=O)N[C@@H](Cc2c[nH]c3ccccc23)C(=O)N[C@@H](CO)C(=O)N[C@@H](Cc2c[nH]c3ccccc23)C(=O)N1C [Example 5031] ({CH2CO}-Y[NMeA]NPHE[Hyp]WSW[NMeNle][NMeNle][Dab]CG-NH2; thioether N-14)	0.385 to 6.74		0.158 to 4.71
CC(C)C[C@@H]1NC(=O)[C@H](Cc2ccc(O)cc2)NC(=O)[C@H](Cc2c[nH]c3ccccc23)NC(=O)CN(C)C(=O)[C@H](Cc2ccc(O)cc2)NC(=O)[C@H](Cc2ccccc2)N(C)C(=O)[C@H](C(C)C)NC(=O)[C@H](CC(=O)O)NC(=O)CN(C)C(=O)[C@H](Cc2ccc(O)cc2)N(C)C(=O)[C@H](Cc2ccccc2)N(C)C(=O)[C@H](Cc2ccccc2)NC(=O)CSC[C@@H](C(=O)NCC(N)=O)NC1=O [Example 3060-A] (HELM PEPTIDE1{[O=C(C[*:3])[*:2]].F.[meF].[meY].[Sar].D.V.[meF].Y.[Sar].W.Y.L.C.G.[am]}$PEPTIDE1,PEPTIDE1,1:R3-14:R3$$$V2.0)	6.76 to 30.3	4.78 to 72.9	
CCCC[C@H]1C(=O)N(C)CC(=O)N[C@@H](CC(=O)O)C(=O)N[C@@H](C(C)C)C(=O)N(C)[C@@H](Cc2ccccc2)C(=O)N[C@@H](Cc2ccc(O)cc2)C(=O)N(C)CC(=O)N[C@@H](Cc2c[nH]c3ccccc23)C(=O)N[C@@H](Cc2ccc(O)cc2)C(=O)N[C@@H](Cc2ccc(CN)cc2)C(=O)N[C@H](C(=O)NCC(N)=O)CSCC(=O)N[C@@H](Cc2ccccc2)C(=O)N(C)[C@@H](Cc2ccccc2)C(=O)N1C [Example 3536] ({CH2CO}-F[NMeF][NMeNle][Sar]DV[NMeF]Y[Sar]WY[Phe(4-CH2NH2)]CG-NH2; thioether N-13)	6.76 to 30.3		4.78 to 72.9
CCCC[C@H]1C(=O)N2C[C@H](O)C[C@@H]2C(=O)N[C@@H](CC(=O)O)C(=O)N[C@@H](C(C)C)C(=O)N(C)[C@@H](Cc2ccccc2)C(=O)N[C@@H](CCC(=O)O)C(=O)N2CCOC[C@@H]2C(=O)N[C@@H](Cc2c[nH]c3ccccc23)C(=O)N[C@@H](Cc2ccc(O)cc2)C(=O)N[C@@H](CCCN)C(=O)N[C@H](C(=O)NCC(N)=O)CSCC(=O)N[C@@H](Cc2cc(F)c(F)c(F)c2)C(=O)N(C)[C@@H](Cc2ccccc2)C(=O)N1C [Example 3599] ({CH2CO}-[Phe(3,4,5-F3)][NMeF][NMeNle][d(cisHyp)]DV[NMeF]E[X4]WY[Orn]CG-NH2; thioether N-13)	0.385 to 6.74		0.158 to 4.71
CCCC[C@H]1C(=O)N(C)[C@@H](CCCC)C(=O)N[C@@H](CCCNC(=N)N)C(=O)N[C@H](C(=O)NCC(N)=O)CSCC(=O)N[C@@H](Cc2cccc(C)c2)C(=O)N(C)[C@@H](C)C(=O)N[C@@H](CC(N)=O)C(=O)N2CCC[C@H]2C(=O)N[C@@H](Cc2cnc[nH]2)C(=O)N[C@@H](CC(C)C)C(=O)N(C)CC(=O)N[C@@H](Cc2c[nH]c3ccccc23)C(=O)N[C@@H](CO)C(=O)N[C@@H](Cc2c[nH]c3ccccc23)C(=O)N1C [Example 1097] ({CH2CO}-[Phe(3-Me)][NMeA]NPHL[Sar]WSW[NMeNle][NMeNle]RCG-NH2; thioether N-14)	6.76 to 30.3	4.78 to 72.9	
CCCC[C@H]1C(=O)N(C)[C@@H](CCCC)C(=O)N[C@@H](CC(C)C)C(=O)N[C@H](C(=O)NCC(N)=O)CSCC(=O)N[C@@H](Cc2ccc(O)cc2)C(=O)N(C)[C@@H](C)C(=O)N[C@@H](CC(N)=O)C(=O)N2CCC[C@H]2C(=O)N[C@@H](CO)C(=O)N[C@@H](CC(C)C)C(=O)N2C[C@H](O)C[C@H]2C(=O)N[C@@H](Cc2c[nH]c3ccccc23)C(=O)N[C@@H](CCN)C(=O)N[C@@H](Cc2c[nH]c3ccccc23)C(=O)N1C [Example 5073] ({CH2CO}-Y[NMeA]NPSL[Hyp]W[Dab]W[NMeNle][NMeNle]LCG-NH2; thioether N-14)	0.385 to 6.74		0.158 to 4.71
CCCC[C@H]1C(=O)N(C)[C@@H](CCCC)C(=O)N[C@@H](CCCNC(=N)N)C(=O)N[C@H](C(=O)NCC(N)=O)CSCC(=O)N[C@@H](Cc2ccc(O)cc2)C(=O)N(C)[C@@H](C)C(=O)N[C@@H](CC(N)=O)C(=O)N2CCC[C@H]2C(=O)N[C@@H](CN)C(=O)N[C@@H](CC(C)C)C(=O)N2C[C@H](O)C[C@H]2C(=O)N[C@@H](Cc2c[nH]c3ccccc23)C(=O)N[C@@H](CC(C)C)C(=O)N[C@@H](Cc2c[nH]c3ccccc23)C(=O)N1C [Example 6034] ({CH2CO}-Y[NMeA]NP[Dap]L[Hyp]WLW[NMeNle][NMeNle]RCG-NH2; thioether N-14)	0.385 to 6.74		0.158 to 4.71
CCCC[C@H]1C(=O)N2C[C@H](O)C[C@@H]2C(=O)N[C@@H](CC(=O)O)C(=O)N[C@@H](C(C)C)C(=O)N(C)[C@@H](Cc2ccccc2)C(=O)N[C@@H](CCCN)C(=O)N2CCOC[C@@H]2C(=O)N[C@@H](Cc2c[nH]c3ccccc23)C(=O)N[C@@H](Cc2ccc(O)cc2)C(=O)N[C@@H](CCCN)C(=O)N[C@H](C(=O)NCC(N)=O)CSCC(=O)N[C@@H](Cc2cc(F)c(F)c(F)c2)C(=O)N(C)[C@@H](Cc2ccccc2)C(=O)N1C [Example 3598] ({CH2CO}-[Phe(3,4,5-F3)][NMeF][NMeNle][d(cisHyp)]DV[NMeF][Orn][X4]WY[Orn]CG-NH2; thioether N-13)	0.385 to 6.74		0.158 to 4.71
